The results in this text go back to ChEMBL document CHEMBL5214886, “An appraisal of anti-mycobacterial activity with structure-activity relationship of piperazine and its analogues: A review” (Eur J Med Chem, 2021).

What all share (type): functional
For assay [1], the system named is Mycobacterium tuberculosis. The experiment in a line: Antimycobacterial activity against multi drug resistant Mycobacterium tuberculosis 16833 assessed as reduction in bacterial growth by MABA analysis. In general terms: Alamar Blue is a resazurin reagent that responds to reducing activity.
The subject of assay [2] is Mycobacterium tuberculosis. The experiment in a line: Antimycobacterial activity against multi drug resistant Mycobacterium tuberculosis 16995 assessed as reduction in bacterial growth by MABA analysis.
Assay [3] relates to Mycobacterium tuberculosis. The assay is described as follows: Antimycobacterial activity against multi drug resistant Mycobacterium tuberculosis assessed as reduction in bacterial growth by two-fold agar dilution method.

Values after ≈ are worked out from the molar mass of the structure shown.

In general, MIC refers to the least concentration at which growth counts as inhibited. Turning to `O=C(NCc1ccc(N2CCN(c3ccc(F)cc3F)CC2)cc1)c1ccc([N+](=O)[O-])o1`, the MIC in assay [1] was 4.16 µM (≈ 1.84 µg/mL); in assay [2] it was 3.19 µM (≈ 1.41 µg/mL).

Turning to `O=C(/C=C(\O)c1cc(Cc2c(F)cc(F)cc2F)cn(Cc2ccccc2F)c1=O)C(=O)N1CCN(c2cccc3ccccc23)CC1`, in assay [3], the MIC is not above 1.5 µM.

Regarding `COc1ccc(N2CCN(c3ccc(CNC(=O)c4ccc([N+](=O)[O-])o4)cc3)CC2)cc1`, the MIC in assay [1] and in assay [2] was 9.16 µM (≈ 4 µg/mL) each time.

As for `O=C(NCc1ccc(N2CCN(c3ccc(F)cc3)CC2)cc1)c1ccc([N+](=O)[O-])o1`, the MIC in assay [1] was found to be 7.61 µM (≈ 3.23 µg/mL); in assay [2] it was 4.22 µM (≈ 1.79 µg/mL).

For the compound `NNC(=O)c1ccncc1` [ISONIAZID], the MIC in assay [1] and in assay [2] was 0.06 µM (≈ 0.00823 µg/mL) throughout.

In the case of `CO[C@H]1/C=C/O[C@@]2(C)Oc3c(C)c(O)c4c(O)c(c(/C=N/N5CCN(C)CC5)c(O)c4c3C2=O)NC(=O)/C(C)=C\C=C\[C@H](C)[C@H](O)[C@@H](C)[C@@H](O)[C@@H](C)[C@H](OC(C)=O)[C@@H]1C` [RIFAMPIN], the MIC in assay [1] and in assay [2] was more than 48.6 µM in each case.
